Results published in patent US11214594B2, “Antimicrobial peptide having synergistic antibacterial effect with antibiotics on multidrug resistant bacteria, and use thereof” (priority 2016, dated 2022).
≈ marks a conversion by molar mass, not a printed value. Like-named read-outs stand apart in the source and are kept apart here. Where a SMILES comes first, the peptide text is derived from it. [ ]: non-standard residue; d: D form.

What was measured:
A. baumannii [1] = assay: MIC of antibiotic during combined treatment with antimicrobial peptide; assay type: cell-based, Acinetobacter baumannii; conditions: for Antibiotic MIC, Erythromycin / Antibiotic MIC, Linezolid / Antibiotic MIC, Vancomycin: A. baumannii
Experimental: Thereafter, the MIC value of each mixed solution was determined by diluting the antibiotic solution with the MH medium, adding 50 μl of the diluted solution to each well, and performing an experiment even under a reversed condition.

MDRAB 12035 [2] = assay: microbe, parasite or virus in culture; assay type: cell-based, Acinetobacter baumannii
Outline: (§1)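 Peptides were serially diluted twofold in Mueller-Hinton medium and combined 1:1 with bacterial suspensions prepared at 2×10^6 CFU. Readout was the minimal inhibitory concentration, i.e. the lowest concentration with no growth.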

A. baumannii [3] = assay: microbe, parasite or virus in culture; assay type: cell-based, Acinetobacter baumannii
Outline: as §1

MDRAB 12035 [4] = assay: MIC of antibiotic during combined treatment with antimicrobial peptide; assay type: cell-based, Acinetobacter baumannii
Experimental: (§2) Specifically, the strains described in [Table 2] were prepared and diluted with an MH medium such that the number of bacteria was 2×10^6 colony-forming units (CFUs) per 1 ml, 100 μl of the diluted strains was each aliquoted into a 96-well microtiter plate, and then 50 μl of a peptide solution diluted with the MH medium from the MIC value (solution diluted stepwise at 2: 1) was added to each well. Thereafter, the MIC value of each mixed solution was determined by diluting the antibiotic solution with the MH medium, adding 50 μl of the diluted solution to each well, and performing an experiment even under a reversed condition.

MDRPA 2003 = assay type: cell-based, Pseudomonas aeruginosa
Experimental: (§3) For the antibacterial activity, a minimal inhibitory concentration (MIC) of a peptide in which fungus bodies were not split in an MH medium with sufficient nutrients was measured.
(§4) Specifically, the strains described in the following [Table 2] were purchased and diluted with an MH medium such that the number of bacteria was 2×10^6 colony-forming units (CFUs), 100 μl of each of the diluted strains was aliquoted into a 96-well microtiter plate, and then 100 μl of a peptide solution diluted with the MH medium (solution diluted stepwise at 2: 1) was added to each well.

MDRPA 2002 = assay type: cell-based, Pseudomonas aeruginosa
Experimental: as §3, §4

E. coli = assay type: cell-based, Escherichia coli; conditions: E. coli
Experimental: as §2

MDREC 1229 = assay type: cell-based, Escherichia coli
Experimental: as §2

B. subtilis = assay: microbe, parasite or virus in culture; assay type: cell-based, Bacillus subtilis
Experimental: as §3, §4

[5] = combined with peptide at 1 μg/ml
[6] = combined with peptide at 2 μg/ml
[7] = combined with peptide at 4 μg/ml
[8] = combined with peptide at 6 μg/ml
[9] = combined with peptide at 8 μg/ml
[10] = combined with peptide at 16 μg/ml
[11] = combined with peptide at 32 μg/ml
[12] = combined with peptide at 64 μg/ml
[13] = peptide treatment concentration 1 μg/ml
[14] = peptide treatment concentration 2 μg/ml
[15] = peptide treatment concentration 4 μg/ml
[16] = peptide treatment concentration 6 μg/ml
[17] = peptide treatment concentration 8 μg/ml
[18] = peptide treatment concentration 16 μg/ml
[19] = peptide treatment concentration 32 μg/ml
[20] = peptide treatment concentration 64 μg/ml

SMILES: CC[C@H](C)[C@H](NC(=O)[C@H](CCCCN)NC(=O)[C@H](Cc1c[nH]c2ccccc12)NC(=O)[C@@H](N)CCCNC(=N)N)C(=O)N[C@@H](Cc1ccccc1)C(=O)N[C@@H](CCCCN)C(=O)N[C@@H](CCCCN)C(=O)N[C@H](C(=O)N[C@H](CCCCN)C(=O)N[C@@H](CCCCN)C(=O)N[C@@H](CC(C)C)C(=O)N[C@@H](CC(C)C)C(=O)N[C@@H](Cc1c[nH]cn1)C(=O)N[C@@H](CO)C(=O)N[C@@H](C)C(=O)N[C@@H](CCCCN)C(=O)N[C@@H](CCCCN)C(=O)N[C@@H](Cc1c[nH]c2ccccc12)C(N)=O)[C@@H](C)CC [PapMA-16, RWK IFK KIk KLL HSA KKW-NH2] (H-RWKIFKKI[dK]KLLHSAKKW-NH2; N-terminus assumed)
- Synergistic effect of antibacterial activity with existing antibiotics compared with PapMA-1 (A. baumannii [1]; A. baumannii and MDRAB 12035): level similar to that of PapMA-1 peptide
- Antibiotic MIC, Erythromycin (A. baumannii [1]; [5]): 32 µg/mL
- Antibiotic MIC, Linezolid (A. baumannii [1]; [5]): >128 µg/mL
- Antibiotic MIC, Vancomycin (A. baumannii [1]; [5]): >128 µg/mL
- Antibiotic MIC, Erythromycin (A. baumannii [1]; [6]): 16 µg/mL
- Antibiotic MIC, Linezolid (A. baumannii [1]; [6]): >128 µg/mL
- Antibiotic MIC, Vancomycin (A. baumannii [1]; [6]): 128 µg/mL
- Antibiotic MIC, Erythromycin (A. baumannii [1]; [7]): 8 µg/mL
- Antibiotic MIC, Linezolid (A. baumannii [1]; [7]): 128 µg/mL
- Antibiotic MIC, Vancomycin (A. baumannii [1]; [7]): 64 µg/mL
- Antibiotic MIC, Erythromycin (A. baumannii [1]; [8]): 1 µg/mL
- Antibiotic MIC, Linezolid (A. baumannii [1]; [8]): 32 µg/mL
- Antibiotic MIC, Vancomycin (A. baumannii [1]; [8]): 32 µg/mL
- Antibiotic MIC, Erythromycin (A. baumannii [1]; [9]): 0.5 µg/mL
- Antibiotic MIC, Linezolid (A. baumannii [1]; [9]): 16 µg/mL
- Antibiotic MIC, Vancomycin (A. baumannii [1]; [9]): 16 µg/mL
- Antibiotic MIC, Erythromycin (A. baumannii [1]; [10]): 0.25 µg/mL
- Antibiotic MIC, Linezolid (A. baumannii [1]; [10]): 8 µg/mL
- Antibiotic MIC, Vancomycin (A. baumannii [1]; [10]): 8 µg/mL
- Antibiotic MIC, Erythromycin (A. baumannii [1]; [11]): 0 µg/mL
- Antibiotic MIC, Linezolid (A. baumannii [1]; [11]): 0 µg/mL
- Antibiotic MIC, Vancomycin (A. baumannii [1]; [11]): 0 µg/mL
- Antibiotic MIC, Erythromycin (A. baumannii [1]; [12]): 0 µg/mL
- Antibiotic MIC, Linezolid (A. baumannii [1]; [12]): 0 µg/mL
- Antibiotic MIC, Vancomycin (A. baumannii [1]; [12]): 0 µg/mL
- Minimal inhibitory concentration MIC (MDRAB 12035 [2]): 32 µg/mL (≈ 13.7 µM)
- Peptide MIC, peptide alone (MDRAB 12035 [2]): 32 µg/mL
- Minimal inhibitory concentration MIC (A. baumannii [3]): 32 µg/mL (≈ 13.7 µM)
- Peptide MIC, peptide alone (A. baumannii [3]): 32 µg/mL
- Erythromycin MIC during combined treatment with peptide (MDRAB 12035 [4]; [13]): 32 µg/mL
- Linezolid MIC during combined treatment with peptide (MDRAB 12035 [4]; [13]): >128 µg/mL
- Vancomycin MIC during combined treatment with peptide (MDRAB 12035 [4]; [13]): >128 µg/mL
- Erythromycin MIC during combined treatment with peptide (MDRAB 12035 [4]; [14]): 32 µg/mL
- Linezolid MIC during combined treatment with peptide (MDRAB 12035 [4]; [14]): >128 µg/mL
- Vancomycin MIC during combined treatment with peptide (MDRAB 12035 [4]; [14]): >128 µg/mL
- Erythromycin MIC during combined treatment with peptide (MDRAB 12035 [4]; [15]): 16 µg/mL
- Linezolid MIC during combined treatment with peptide (MDRAB 12035 [4]; [15]): 128 µg/mL
- Vancomycin MIC during combined treatment with peptide (MDRAB 12035 [4]; [15]): 64 µg/mL
- Erythromycin MIC during combined treatment with peptide (MDRAB 12035 [4]; [16]): 4 µg/mL
- Linezolid MIC during combined treatment with peptide (MDRAB 12035 [4]; [16]): 32 µg/mL
- Vancomycin MIC during combined treatment with peptide (MDRAB 12035 [4]; [16]): 32 µg/mL
- Erythromycin MIC during combined treatment with peptide (MDRAB 12035 [4]; [17]): 1 µg/mL
- Linezolid MIC during combined treatment with peptide (MDRAB 12035 [4]; [17]): 16 µg/mL
- Vancomycin MIC during combined treatment with peptide (MDRAB 12035 [4]; [17]): 16 µg/mL
- Erythromycin MIC during combined treatment with peptide (MDRAB 12035 [4]; [18]): 0.25 µg/mL
- Linezolid MIC during combined treatment with peptide (MDRAB 12035 [4]; [18]): 8 µg/mL
- Vancomycin MIC during combined treatment with peptide (MDRAB 12035 [4]; [18]): 8 µg/mL
- Erythromycin MIC during combined treatment with peptide (MDRAB 12035 [4]; [19]): 0 µg/mL
- Linezolid MIC during combined treatment with peptide (MDRAB 12035 [4]; [19]): 0 µg/mL
- Vancomycin MIC during combined treatment with peptide (MDRAB 12035 [4]; [19]): 0 µg/mL
- Erythromycin MIC during combined treatment with peptide (MDRAB 12035 [4]; [20]): 0 µg/mL
- Linezolid MIC during combined treatment with peptide (MDRAB 12035 [4]; [20]): 0 µg/mL
- Vancomycin MIC during combined treatment with peptide (MDRAB 12035 [4]; [20]): 0 µg/mL
- Minimal inhibitory concentration MIC (MDRPA 2003): 64 µg/mL (≈ 27.4 µM)
- Minimal inhibitory concentration MIC (MDRPA 2002): 64 µg/mL (≈ 27.4 µM)
- Peptide MIC (E. coli; with Erythromycin […] (Conc./MIC 1)): 0 µg/mL
- Peptide MIC (E. coli; with Linezolid […] (Conc./MIC 1)): 0 µg/mL
- Peptide MIC (E. coli; with Vancomycin 1024 μg/ml (Conc./MIC 1)): 0 µg/mL
- Peptide MIC during treatment with antibiotic (MDREC 1229; erythromycin 32 μg/ml (Conc./MIC 1/8)): 4 µg/mL
- Peptide MIC during treatment with antibiotic (MDREC 1229; erythromycin 64 μg/ml (Conc./MIC 1/4)): 2 µg/mL
- Peptide MIC during treatment with antibiotic (MDREC 1229; erythromycin […] (Conc./MIC 1)): 0 µg/mL
- Peptide MIC during treatment with antibiotic (MDREC 1229; erythromycin […] (Conc./MIC 1/2)): 2 µg/mL
- Peptide MIC during treatment with antibiotic (MDREC 1229; linezolid 64 μg/ml (Conc./MIC 1/8)): 4 µg/mL
- Peptide MIC during treatment with antibiotic (MDREC 1229; linezolid 512 μg/ml (Conc./MIC 1)): 0 µg/mL
- Peptide MIC during treatment with antibiotic (MDREC 1229; linezolid […] (Conc./MIC 1/2)): 1 µg/mL
- Peptide MIC during treatment with antibiotic (MDREC 1229; linezolid […] (Conc./MIC 1/4)): 2 µg/mL
- Peptide MIC during treatment with antibiotic (MDREC 1229; vancomycin 512 μg/ml (Conc./MIC 1/2)): 2 µg/mL
- Peptide MIC during treatment with antibiotic (MDREC 1229; vancomycin 1024 μg/ml (Conc./MIC 1)): 1 µg/mL
- Peptide MIC during treatment with antibiotic (MDREC 1229; vancomycin […] (Conc./MIC 1/4)): 4 µg/mL
- Peptide MIC during treatment with antibiotic (MDREC 1229; vancomycin […] (Conc./MIC 1/8)): 8 µg/mL
- Minimal inhibitory concentration MIC (B. subtilis): >128 µg/mL
